Test results reported in paper PMC12116762, “Topobexin targets the Topoisomerase II ATPase domain for beta isoform-selective inhibition and anthracycline cardioprotection” (Nature Communications, 2025).
Where “and” joins values, the source holds several entries; their conditions need not be identical. Equal values may be shown once.

Columns and labels:
HL-60 cell line = system: HL-60 cell line; set-up: method as in previously determined; settings: ref previously determined, read-out: IC50, antiproliferative; cited from earlier work
TOP2B = molecular target: T1, TOP2B (Rattus norvegicus, UniProt A0A8I5Y7L4); assay: TOP2B protein levels in NVCM (Western blotting); assay type: cell-based; settings: for TOP2B protein level: independent replicates
T1 construct: endogenous in cells; host or cells: primary neonatal Wistar rat ventricular cardiomyocytes (NVCM)
T1 sequence (A0A8I5Y7L4 1-1614): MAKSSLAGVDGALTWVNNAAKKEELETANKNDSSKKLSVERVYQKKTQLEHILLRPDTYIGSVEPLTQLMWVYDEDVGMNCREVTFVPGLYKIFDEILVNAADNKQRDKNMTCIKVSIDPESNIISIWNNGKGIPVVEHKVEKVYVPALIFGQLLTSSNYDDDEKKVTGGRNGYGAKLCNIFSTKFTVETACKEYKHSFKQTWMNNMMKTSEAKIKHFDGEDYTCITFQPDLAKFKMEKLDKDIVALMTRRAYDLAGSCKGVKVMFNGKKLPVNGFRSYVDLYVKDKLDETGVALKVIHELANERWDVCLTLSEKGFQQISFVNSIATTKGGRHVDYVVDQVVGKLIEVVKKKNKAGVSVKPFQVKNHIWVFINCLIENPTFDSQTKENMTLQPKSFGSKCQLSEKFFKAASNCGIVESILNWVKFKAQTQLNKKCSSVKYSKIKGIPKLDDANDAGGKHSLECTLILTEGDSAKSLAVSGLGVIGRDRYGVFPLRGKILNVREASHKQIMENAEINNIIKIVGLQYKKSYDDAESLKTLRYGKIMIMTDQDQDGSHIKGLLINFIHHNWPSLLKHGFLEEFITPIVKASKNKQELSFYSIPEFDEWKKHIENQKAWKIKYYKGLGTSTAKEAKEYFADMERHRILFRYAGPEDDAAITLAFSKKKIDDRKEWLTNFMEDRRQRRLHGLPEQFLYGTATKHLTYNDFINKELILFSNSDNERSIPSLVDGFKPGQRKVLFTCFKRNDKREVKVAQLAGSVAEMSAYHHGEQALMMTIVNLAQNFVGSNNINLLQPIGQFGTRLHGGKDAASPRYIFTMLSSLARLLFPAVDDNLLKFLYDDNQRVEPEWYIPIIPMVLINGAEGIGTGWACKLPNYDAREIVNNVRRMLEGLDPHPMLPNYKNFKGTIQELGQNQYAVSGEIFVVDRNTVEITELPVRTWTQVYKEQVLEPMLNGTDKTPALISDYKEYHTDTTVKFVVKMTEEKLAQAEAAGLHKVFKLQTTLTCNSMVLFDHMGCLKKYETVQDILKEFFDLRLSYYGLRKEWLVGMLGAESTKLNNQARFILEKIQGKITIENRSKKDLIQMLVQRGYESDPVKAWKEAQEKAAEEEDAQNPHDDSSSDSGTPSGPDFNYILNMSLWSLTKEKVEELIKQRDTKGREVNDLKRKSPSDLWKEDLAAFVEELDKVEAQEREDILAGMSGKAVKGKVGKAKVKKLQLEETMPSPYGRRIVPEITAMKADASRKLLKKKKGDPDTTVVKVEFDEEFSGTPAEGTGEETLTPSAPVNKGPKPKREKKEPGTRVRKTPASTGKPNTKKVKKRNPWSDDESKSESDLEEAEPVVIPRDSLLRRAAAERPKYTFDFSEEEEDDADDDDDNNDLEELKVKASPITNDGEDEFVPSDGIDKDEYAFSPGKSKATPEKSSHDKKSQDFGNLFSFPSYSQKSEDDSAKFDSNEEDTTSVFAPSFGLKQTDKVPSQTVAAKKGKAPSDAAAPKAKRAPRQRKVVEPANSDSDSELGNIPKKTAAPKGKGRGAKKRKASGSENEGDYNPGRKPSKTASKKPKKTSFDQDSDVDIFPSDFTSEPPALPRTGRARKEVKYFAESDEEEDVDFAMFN
Procedure: TOP2B and γH2AX levels in NVCM were determined as follows. After incubation, 4 × 10^5 rat neonatal cardiomyocytes were lysed with 75 µL of 2% SDS in 0.1 M Tris (pH 7.4) and boiled at 95 °C for 5 min. The protein content of each sample was determined by the BCA method and 10 μg of total protein were loaded onto a polyacrylamide gel (7.5% for TOP2B, 12% for γH2AX, Bio-Rad TGX stain-free gels). After approximately 75 min of electrophoresis (150 V, Bio-Rad Mini-PROTEAN Tetra Cell), the gels were transblotted onto nitrocellulose membranes using a semi-dry method in Transblot Turbo (Bio-Rad, USA). The next day, the membranes were blocked for 1 h in 5% skimmed milk powder in 0.05% TBS-T at room temperature (RT). For TOP2 analysis, membranes were incubated with rabbit anti-TOP2A/B (1:2,000, ab109524, Abcam, UK) in 1% BSA in PBS for 1 h at RT, washed 6 times for 5 min in 0.05% TBS-T and then incubated with HRP-labeled F(ab’)2 goat anti-rabbit IgG (1:10,000, ab6112, Abcam, UK) in 0.05% TBS-T for 1 h RT and washed again (6 × 5 min in 0.05% TBS-T). For γH2AX analysis, membranes were incubated with mouse anti-γH2AX (1:5,000; ab26350, Abcam, UK) in 5% BSA in PBS for 1 h at RT, washed with 0.05% PBS-T for 6 × 5 min, incubated with HRP-conjugated anti-mouse IgG (1:40,000; A9044 Sigma Aldrich, USA) in 5% BSA in PBS for 1 h RT and finally washed with 0.05% PBS-T for 6 times 5 min. Target proteins were visualized using a chemiluminescent detection substrate (Clarity Western ECL Substrate, Bio-Rad, USA) and a Gel Doc EZ with Image Lab software (Bio-Rad, USA). Full, uncropped images of all blots present in the manuscript figures are included in the source data file.
Densitometric quantification was performed using Image Lab software (Bio-Rad). Stain-free technology was used to visualize the total protein on the gel and normalize the total protein amount in each line. Each presented data point was obtained from distinct sample.

[1] = molecular target: T2, TOP2A-DNA covalent complex (Homo sapiens, UniProt P11388); assay: RADAR assay, etoposide-induced TOP2A-DNA covalent complex in HEK293F cells; assay type: cell-based; settings: for TOP2A spot intensity: independent replicates
T2 construct: endogenous in cells; host or cells: HEK293F
T2 sequence (P11388 whole entry, one chain of several): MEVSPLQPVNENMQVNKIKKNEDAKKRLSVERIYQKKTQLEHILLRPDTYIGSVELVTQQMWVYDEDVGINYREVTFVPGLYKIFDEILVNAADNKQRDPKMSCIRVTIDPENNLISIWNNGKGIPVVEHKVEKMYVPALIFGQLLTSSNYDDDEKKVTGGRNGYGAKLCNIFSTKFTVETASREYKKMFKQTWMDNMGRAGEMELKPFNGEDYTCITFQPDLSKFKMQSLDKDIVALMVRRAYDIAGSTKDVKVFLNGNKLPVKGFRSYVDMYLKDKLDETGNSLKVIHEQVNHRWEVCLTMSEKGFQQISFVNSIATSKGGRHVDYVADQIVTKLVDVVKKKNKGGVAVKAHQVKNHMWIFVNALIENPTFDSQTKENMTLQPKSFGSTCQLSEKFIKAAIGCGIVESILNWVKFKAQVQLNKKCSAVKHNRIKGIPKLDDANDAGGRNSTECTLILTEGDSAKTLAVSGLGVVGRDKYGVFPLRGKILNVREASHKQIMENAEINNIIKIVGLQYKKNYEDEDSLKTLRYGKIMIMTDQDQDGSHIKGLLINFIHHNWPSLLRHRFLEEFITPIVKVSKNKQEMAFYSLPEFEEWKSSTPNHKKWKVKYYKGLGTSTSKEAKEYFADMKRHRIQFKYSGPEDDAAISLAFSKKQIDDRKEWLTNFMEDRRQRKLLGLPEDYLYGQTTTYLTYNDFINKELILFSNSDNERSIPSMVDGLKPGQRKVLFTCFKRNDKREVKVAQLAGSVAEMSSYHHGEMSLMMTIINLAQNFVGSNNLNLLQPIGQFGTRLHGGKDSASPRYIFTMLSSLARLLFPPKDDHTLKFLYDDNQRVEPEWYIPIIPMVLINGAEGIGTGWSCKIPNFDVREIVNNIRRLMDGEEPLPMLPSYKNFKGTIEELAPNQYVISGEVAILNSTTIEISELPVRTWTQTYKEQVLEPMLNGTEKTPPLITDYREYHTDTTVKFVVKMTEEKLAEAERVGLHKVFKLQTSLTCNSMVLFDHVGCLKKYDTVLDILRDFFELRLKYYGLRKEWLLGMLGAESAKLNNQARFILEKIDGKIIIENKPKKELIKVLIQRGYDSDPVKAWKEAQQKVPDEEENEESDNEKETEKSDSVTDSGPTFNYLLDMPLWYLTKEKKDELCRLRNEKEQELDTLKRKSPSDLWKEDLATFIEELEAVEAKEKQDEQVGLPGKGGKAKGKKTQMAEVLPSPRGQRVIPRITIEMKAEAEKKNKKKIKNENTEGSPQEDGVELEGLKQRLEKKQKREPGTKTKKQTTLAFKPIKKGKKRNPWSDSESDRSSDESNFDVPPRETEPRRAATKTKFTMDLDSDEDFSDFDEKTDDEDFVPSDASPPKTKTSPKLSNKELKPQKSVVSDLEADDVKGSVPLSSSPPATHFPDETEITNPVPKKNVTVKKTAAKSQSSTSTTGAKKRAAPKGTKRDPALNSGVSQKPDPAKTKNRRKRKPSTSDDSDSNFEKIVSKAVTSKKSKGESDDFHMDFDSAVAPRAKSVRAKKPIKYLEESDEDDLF
Procedure: HEK293F cells were plated at 3 × 10^5 cells per well and grown overnight. […] Upon removal of media, cells in each well were immediately lysed with 750 µL DNAzol (Molecular Research Center, Inc.) and the DNA was precipitated by addition of 375 µL of 100% ethanol. This step was then repeated to eliminate protein aggregates. Precipitate from each sample was pelleted via centrifugation at 4 °C and max speed for 5 min. The pellets were washed twice with buffer containing 20 mM Tris pH 7.5, 1 mM EDTA pH 8.0, 50 mM NaCl, 50% EtOH, and at the end of each wash, centrifugation at 4000 × g for 2 min was repeated to isolate the DNA pellets. The pellets were washed in 75% EtOH and then collected by centrifugation at 4 °C and max speed for 5 min. The supernatant was removed via pipetting, and the remaining pellets were air dried for 5 min before 50 µL 8 mM NaOH and 0.1% Tween-20 was added to each pellet. Once no visible precipitate remained, each mixture was supplemented with 5 µL of Benzonase buffer containing 500 mM Tris pH 8.0, 10 mM MgCl2, 1/1000 Roche complete protease inhibitor cocktail (Millipore Sigma) and 40 units Benzonase (Millipore Sigma) followed by 30 to 60 min incubation at 37 °C until the pellets were fully dissolved. The DNA content from each sample was quantified on a nanodrop, and 10 µg of DNA was diluted to a final volume of 200 µL in 8 mM NaOH and 0.1% Tween. The samples were applied over the Whatman Minifold I dot blot apparatus (Cytiva) and collected on a PVDF membrane (Thermo Fisher Scientific). The membrane was washed three times with 8 mM NaOH and 0.1% Tween-20 solution prior to removal and blocking with the same wash solution containing 1 mg/mL BSA. Western blotting was carried out on an iBind (Thermo Fisher Scientific) and TOP2 proteins were detected using isoform-specific antibody against full length TOP2A (1:250 dilution; HT2A21, Inspiralis) and TOP2B (1:500 dilution; 611493, BD Biosciences) and visualized with anti-rabbit (1:1000 dilution; 926-68071, LI-COR Bio) and anti-mouse (1:1000 dilution; 926-32210, LI-COR Bio) secondary antibodies in iBind running buffer. The blots were imaged on a LI-COR Odyssey Fc and analysed using ImageStudio. Each presented data point was obtained from distinct sample.

Compound | IC50 (HL-60 cell line) [nM] | TOP2B protein levels in NVCM (TOP2B) | TOP2B protein level, mean (TOP2B; 0.1 µM, ctr mean 100) | TOP2B protein level (TOP2B; 0.1 µM, ctr mean 100) | TOP2B protein level, mean (TOP2B; 1 µM) | TOP2B protein level (TOP2B; 1 μM) | TOP2B protein level, mean (TOP2B; 10 µM) | TOP2B protein level (TOP2B; 10 µM) | TOP2A spot intensity ([1]; Cmpd 9 0.1 μM + etoposide 5 μM) | TOP2A spot intensity ([1]; Cmpd 9 1 μM + etoposide 5 μM) | TOP2A spot intensity ([1]; Cmpd 9 10 μM + etoposide 5 μM) | TOP2A spot intensity ([1]; Cmpd 9 10 μM, etoposide 0, background subtracted) | concentration significantly reducing TOP2A-DNA CC ([1]; etoposide-induced, HEK293F) [µM]
COc1cccc2c1C(=O)c1c(O)c3c(c(O)c1C2=O)C[C@@](O)(C(C)=O)C[C@@H]3O[C@H]1C[C@H](N)[C@H](O)[C@H](C)O1 [DAU, daunorubicin, reference compound] | 15 | – | – | – | – | – | – | – | – | – | – | – | –
CCCc1cc(=O)oc2c(C(=O)N3CCCc4ccccc43)c(OCCN3CCN(C)CC3)ccc12 [topobexin (9)] | – | potent and concentration-dependent depletion | 23.4137 | 11.507 and 22.9519 and 35.7822 | 1.8687 | 0.3883 and 3.978 and 1.24 | 0.6098 | 0.07384 and 0.9813 and 0.7742 | 56.77 and 79.14 and 121.2 and 109.4 and 138 | 31.84 and 81.31 and 94.03 and 77.86 and 117.3 | 13.9 and 41.59 and 30.46 and 21.29 and 12.52 | 0.2099 and 13.4 and 11.83 and 3.115 and 7.885 | 10
